Data as given in PMC7480105, “Wbox2: A clathrin terminal domain–derived peptide inhibitor of clathrin-mediated endocytosis” (The Journal of Cell Biology, 2020).

Assays:
[1] = tested on: TfnR uptake via CME in ARPE/HPV cells; test: TfnR uptake (in-cell ELISA) after peptide preincubation; format: cell-based; details: 60-min preincubation at 37°C (Fig. 7 F), TAT at concentrations <100 µM
Description: Peptides encoding the TAT sequence (YGRKKRRQRRR) followed by 10 amino acid sequences covering the four reported binding sites on the clathrin terminal domain (Fig. 7 A) were synthesized by GenScript (Piscataway, NJ) with >95% purity. Peptides were dissolved in dH2O and further diluted in PBS4+ (1× PBS buffer plus 0.2% BSA, 1 mM CaCl2, 1 mM MgCl2, and 5 mM D-glucose) or cell culture medium (for imaging) when applied to cells. Peptide solutions were stored at −20°C.
Internalization of TfnR, CD44, CD59, and Biotin-Tfn was quantified by in-cell ELISA following established protocols ([Conner and Schmid, 2003]; [Srinivasan et al., 2018]). Cells were seeded in 96-well plates (Costar) at 60–70% confluence and grown overnight. Before the assay, cells were starved for 30 min in PBS4+ at 37°C or treated with peptides in PBS4+ at 37°C for the indicated times. After starvation, cells were moved to 4°C, and culture medium was replaced with cold PBS4+ containing 5 µg/ml HTR-D65 (anti-TfnR mAb; [Schmid and Smythe, 1991]), anti-human CD44 or anti-human CD59 (BD PharMingen) or 5 µg/ml Biotin-Tfn (Sigma-Aldrich). For single-round assays, the above reagents were kept with cells for 20 min at 4°C and then washed out before uptake assay. For multiround assays, the above reagents were kept with cells throughout the uptake process. In parallel, some cells were kept at 4°C for the measurement of surface-bound ligands and blank controls, and some were incubated in a 37°C water bath for the indicated times. Acid wash (0.2 M acetic acid and 0.2 M NaCl, pH 2.3) was used to remove surface-bound antibodies, followed by washing with cold PBS. All were fixed with 4% PFA (Electron Microscopy Sciences) in PBS for 30 min at 37°C. 0.1% Triton X-100 was added for 6.5 min to permeabilize cells, followed by addition of blocking buffer. HTR-D65–, CD44-, and CD59-treated cells were blocked with Q-PBS (PBS, 2% BSA, 0.1% lysine, and 0.01% saponin, pH 7.4), and Biotin-Tfn–treated cells were blocked with 2% casein. Surface-bound and internalized HTR-D65, CD44, and CD59 were probed with goat anti-mouse antibody conjugated with HRP (Sigma-Aldrich), and Biotin-Tfn was probed with Streptavidin-POD conjugate (Sigma-Aldrich). Color was developed using o-phenylenediamine dihydrochloride (OPD) solution (Sigma-Aldrich), and absorbance was read at 490 nm (Biotek Synergy H1 Hybrid Reader). Cell number variation among wells was accounted for by bicinchoninic acid assay reading at 562 nm.

SNX9 = SNX9 (Homo sapiens, UniProt Q9Y5X1); test: Isothermal titration calorimetry with SNX9; format: binding; details: ITC, 1.8 mM peptide injected into 50 µM SNX9
Excerpt: GUSSI was further used to output the figures presented.

TD–AP2 interactions = test: GST-TD (1–580) pulldown of AP2 from mouse brain extract; format: biochemical; details: increasing peptide concentrations, overnight at 4°C, Western blot, three independent runs (Fig. 9 B, C)
Description: A mouse brain was homogenized using a Dounce tissue grinder (Sartorius) in 1 ml MES buffer (100 mM Mes, 1 mM EGTA, 0.5 mM MgCl2, and 0.1 mM PMSF, pH 6.4). After spinning at 5,000 g and 4°C for 3 min, the supernatant was ultracentrifuged at 110,000 g for 60 min. The resulting pellet was then resuspended in extraction buffer (3 vol of 1 M Tris, pH 8, 1 vol Mes buffer, with added PMSF and DTT to 0.1 mM each) for 30 min at room temperature. The resuspended solution was ultracentrifuged at 110,000 g for 60 min to collect supernatant containing released coat proteins. The brain extract buffer was exchanged to pulldown reaction buffer (50 mM Tris, 150 mM NaCl, and 0.1 mM EGTA, pH 7.5) using zeba spin desalting columns (Thermo Fisher Scientific).
In the pulldown assay, 75 µg GST-TD (residues 1–580) in reaction buffer was mixed with coat protein fractions (10% of total extract from a mouse brain) and the indicated concentrations of peptides. The mixture was incubated with 50 µl of a 50% slurry of glutathione Sepharose 4B beads (ABT) and left to rotate overnight at 4°C. Subsequently, beads were collected by spinning down at 1,000 g for 2 min and washed twice with reaction buffer. The beads were resuspended in Laemmli sample buffer and denatured at 95°C before running on 7.5% SDS-PAGE and Western blotting.

cytotoxicity = tested on: cytotoxicity; parameters: method as in Rosselli-Murai et al., 2018; details: ref Rosselli-Murai et al., 2018; cited from earlier work

SNX9, sequence (Q9Y5X1 whole entry, species assumed): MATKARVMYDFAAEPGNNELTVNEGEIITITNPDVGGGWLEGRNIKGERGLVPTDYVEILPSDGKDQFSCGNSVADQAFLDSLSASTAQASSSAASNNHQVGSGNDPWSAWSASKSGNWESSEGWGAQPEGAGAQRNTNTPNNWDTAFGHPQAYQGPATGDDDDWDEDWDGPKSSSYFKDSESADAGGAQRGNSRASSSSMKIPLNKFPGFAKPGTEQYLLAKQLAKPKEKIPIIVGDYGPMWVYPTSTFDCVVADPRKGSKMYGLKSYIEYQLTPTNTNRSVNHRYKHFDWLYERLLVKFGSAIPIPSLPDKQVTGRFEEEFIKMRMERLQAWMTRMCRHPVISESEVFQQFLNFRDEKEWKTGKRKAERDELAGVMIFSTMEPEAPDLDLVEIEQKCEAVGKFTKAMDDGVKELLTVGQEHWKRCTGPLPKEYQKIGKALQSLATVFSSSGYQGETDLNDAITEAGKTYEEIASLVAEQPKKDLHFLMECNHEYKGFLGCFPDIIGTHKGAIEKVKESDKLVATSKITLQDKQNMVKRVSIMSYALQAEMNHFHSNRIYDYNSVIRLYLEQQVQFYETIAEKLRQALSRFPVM

Substance	inhibitory activity on TfnR uptake, concentration curve [1]	interaction with SNX9 compared with Wbox2 (SNX9)	inhibition of AP2 pulldown by GST-TD (TD–AP2 interactions)	cytotoxic concentration relative to CME-inhibitory concentration (cytotoxicity)
YGRKKRRQRRR [TAT, arginine-rich TAT peptide, negative control, reference compound]	did not inhibit	much weaker interactions	much weaker inhibition	–
pitstop	–	–	–	cytotoxic at concentrations only approximately twofold higher
